Measurements: PubChem BioAssay AID1259407 (Chemical Carcinogenesis Research Information System (CCRIS), 2018)
Active and inactive are the calls of the source. The rule behind the calls is not given here.

Test system: CCRIS mutagenicity, Ames/micronucleus/aberration tests
Assay: CCRIS mutagenicity studies
[1] = Test System: AMES SALMONELLA TYPHIMURIUM, Strain/Indicator: TA98, Metabolic Activation: NONE
[2] = Test System: AMES SALMONELLA TYPHIMURIUM, Strain/Indicator: TA98, Metabolic Activation: RAT, LIVER, S-9, AROCLOR 1254
[3] = Test System: AMES SALMONELLA TYPHIMURIUM, Strain/Indicator: TA100, Metabolic Activation: NONE
[4] = Test System: AMES SALMONELLA TYPHIMURIUM, Strain/Indicator: TA100, Metabolic Activation: NONE, Method: STANDARD PLATE
[5] = Test System: AMES SALMONELLA TYPHIMURIUM, Strain/Indicator: TA100, Metabolic Activation: RAT, LIVER, S-9, AROCLOR 1254
[6] = Test System: AMES SALMONELLA TYPHIMURIUM, Strain/Indicator: TA98, Metabolic Activation: HAMSTER, LIVER, S-9, AROCLOR 1254 (10%), Method: PREINCUBATION
[7] = Test System: AMES SALMONELLA TYPHIMURIUM, Strain/Indicator: TA98, Metabolic Activation: NONE, Method: PREINCUBATION
[8] = Test System: AMES SALMONELLA TYPHIMURIUM, Strain/Indicator: TA98, Metabolic Activation: RAT, LIVER, S-9, AROCLOR 1254 (10%), Method: PREINCUBATION
[9] = Test System: AMES SALMONELLA TYPHIMURIUM, Strain/Indicator: TA100, Metabolic Activation: HAMSTER, LIVER, S-9, AROCLOR 1254 (10%), Method: PREINCUBATION
[10] = Test System: AMES SALMONELLA TYPHIMURIUM, Strain/Indicator: TA100, Metabolic Activation: NONE, Method: PREINCUBATION
[11] = Test System: AMES SALMONELLA TYPHIMURIUM, Strain/Indicator: TA100, Metabolic Activation: RAT, LIVER, S-9, AROCLOR 1254 (10%), Method: PREINCUBATION
[12] = Test System: AMES SALMONELLA TYPHIMURIUM, Strain/Indicator: TA1535, Metabolic Activation: HAMSTER, LIVER, S-9, AROCLOR 1254 (10%), Method: PREINCUBATION
[13] = Test System: AMES SALMONELLA TYPHIMURIUM, Strain/Indicator: TA1535, Metabolic Activation: NONE, Method: PREINCUBATION
[14] = Test System: AMES SALMONELLA TYPHIMURIUM, Strain/Indicator: TA1535, Metabolic Activation: RAT, LIVER, S-9, AROCLOR 1254 (10%), Method: PREINCUBATION
[15] = Test System: AMES SALMONELLA TYPHIMURIUM, Strain/Indicator: TA1537, Metabolic Activation: HAMSTER, LIVER, S-9, AROCLOR 1254 (10%), Method: PREINCUBATION
[16] = Test System: AMES SALMONELLA TYPHIMURIUM, Strain/Indicator: TA1537, Metabolic Activation: NONE, Method: PREINCUBATION
[17] = Test System: AMES SALMONELLA TYPHIMURIUM, Strain/Indicator: TA1537, Metabolic Activation: RAT, LIVER, S-9, AROCLOR 1254 (10%), Method: PREINCUBATION

## CCCC(=O)Nc1ccc(OCC(O)CNC(C)C)c(C(C)=O)c1 (stereo not given)
[1]
  mutagenic call: inactive; negative
Test System: AMES SALMONELLA TYPHIMURIUM, Strain/Indicator: TA98, Metabolic Activation: NONE, Method: STANDARD PLATE
  mutagenic call: inactive; negative
[2]
  mutagenic call: inactive; negative
Test System: AMES SALMONELLA TYPHIMURIUM, Strain/Indicator: TA98, Metabolic Activation: RAT, LIVER, S-9, AROCLOR 1254, Method: STANDARD PLATE
  mutagenic call: inactive; negative
[3]
  mutagenic call: inactive; negative
[4]
  mutagenic call: inactive; negative
[5]
  mutagenic call: inactive; negative
Test System: AMES SALMONELLA TYPHIMURIUM, Strain/Indicator: TA100, Metabolic Activation: RAT, LIVER, S-9, AROCLOR 1254, Method: STANDARD PLATE
  mutagenic call: inactive; negative
Test System: AMES SALMONELLA TYPHIMURIUM, Strain/Indicator: TA1535, Metabolic Activation: NONE
  mutagenic call: inactive; negative
Test System: AMES SALMONELLA TYPHIMURIUM, Strain/Indicator: TA1535, Metabolic Activation: RAT, LIVER, S-9, AROCLOR 1254
  mutagenic call: inactive; negative
Test System: AMES SALMONELLA TYPHIMURIUM, Strain/Indicator: TA1537, Metabolic Activation: NONE
  mutagenic call: inactive; negative
Test System: AMES SALMONELLA TYPHIMURIUM, Strain/Indicator: TA1537, Metabolic Activation: RAT, LIVER, S-9, AROCLOR 1254
  mutagenic call: inactive; negative

## Nc1cc(S(=O)(=O)[O-])cc2c1C(=O)/C(=N\Nc1ccc(-c3ccc(N/N=C4\C(=O)c5c(N)cc(S(=O)(=O)[O-])cc5C=C4S(=O)(=O)[O-])c(O)c3)cc1O)C(S(=O)(=O)[O-])=C2.[Cu].[Cu].[Na+].[Na+].[Na+].[Na+]
[6]
  mutagenic call: inactive; negative
[7]
  mutagenic call: inactive; negative
[8]
  mutagenic call: inactive; negative
[9]
  mutagenic call: inactive; negative
[10]
  mutagenic call: inactive; negative
[11]
  mutagenic call: inactive; negative
[12]
  mutagenic call: inactive; negative
[13]
  mutagenic call: inactive; negative
[14]
  mutagenic call: inactive; negative
[15]
  mutagenic call: inactive; negative
[16]
  mutagenic call: inactive; negative
[17]
  mutagenic call: inactive; negative
Test System: AMES SALMONELLA TYPHIMURIUM, Strain/Indicator: TA1538, Metabolic Activation: RAT, LIVER, S-9, AROCLOR 1254, Method: STANDARD PLATE
  mutagenic call: inactive; negative

## CC(C)C(=O)OCC(C)(C)C(O)C(C)C (stereo not given)
[7]
  mutagenic call: inactive; negative
Test System: AMES SALMONELLA TYPHIMURIUM, Strain/Indicator: TA98, Metabolic Activation: RAT LIVER S-9, PHENOBARBITAL AND BETA-NAPHTHOFLAVONE, Method: PREINCUBATION
  mutagenic call: inactive; negative
[10]
  mutagenic call: inactive; negative
Test System: AMES SALMONELLA TYPHIMURIUM, Strain/Indicator: TA100, Metabolic Activation: RAT LIVER S-9, PHENOBARBITAL AND BETA-NAPHTHOFLAVONE, Method: PREINCUBATION
  mutagenic call: inactive; negative
[13]
  mutagenic call: inactive; negative
Test System: AMES SALMONELLA TYPHIMURIUM, Strain/Indicator: TA1535, Metabolic Activation: RAT LIVER S-9, PHENOBARBITAL AND BETA-NAPHTHOFLAVONE, Method: PREINCUBATION
  mutagenic call: inactive; negative
[16]
  mutagenic call: inactive; negative
Test System: AMES SALMONELLA TYPHIMURIUM, Strain/Indicator: TA1537, Metabolic Activation: RAT LIVER S-9, PHENOBARBITAL AND BETA-NAPHTHOFLAVONE, Method: PREINCUBATION
  mutagenic call: inactive; negative
Test System: E.COLI, Strain/Indicator: WP2UVRA/PKM101, Metabolic Activation: NONE, Method: PREINCUBATION
  mutagenic call: inactive; negative
Test System: E.COLI, Strain/Indicator: WP2UVRA/PKM101, Metabolic Activation: RAT LIVER S-9, PHENOBARBITAL AND BETA-NAPHTHOFLAVONE, Method: PREINCUBATION
  mutagenic call: inactive; negative

## CC(=O)ON(OCc1ccc(C(C)(C)C)cc1)C(=O)c1ccccc1
[4]
  mutagenic call: active; positive

## CC(=O)Nc1ccc(Oc2ccccc2)cc1
[4]
  mutagenic call: inactive; negative
Test System: AMES SALMONELLA TYPHIMURIUM, Strain/Indicator: TA100, Metabolic Activation: RAT, LIVER, S-9, KANECLOR 500, Method: STANDARD PLATE
  mutagenic call: active; positive

## OCCOCCO
Test System: AMES SALMONELLA TYPHIMURIUM, Strain/Indicator: TA97A, Metabolic Activation: NONE
  mutagenic call: inactive; negative
Test System: AMES SALMONELLA TYPHIMURIUM, Strain/Indicator: TA97A, Metabolic Activation: RAT, LIVER, S-9, AROCLOR 1254
  mutagenic call: inactive; negative
[6]
  mutagenic call: inactive; negative
[1]
  mutagenic call: inactive; negative
[7]
  mutagenic call: inactive; negative
[2]
  mutagenic call: inactive; negative
[8]
  mutagenic call: inactive; negative
[9]
  mutagenic call: inactive; negative
[3]
  mutagenic call: inactive; negative
[10]
  mutagenic call: inactive; negative
[5]
  mutagenic call: inactive; negative
[11]
  mutagenic call: inactive; negative
Test System: AMES SALMONELLA TYPHIMURIUM, Strain/Indicator: TA102, Metabolic Activation: NONE
  mutagenic call: inactive; negative
Test System: AMES SALMONELLA TYPHIMURIUM, Strain/Indicator: TA102, Metabolic Activation: RAT, LIVER, S-9, AROCLOR 1254
  mutagenic call: inactive; negative
[12]
  mutagenic call: inactive; negative
[13]
  mutagenic call: inactive; negative
[14]
  mutagenic call: inactive; negative
[15]
  mutagenic call: inactive; negative
[16]
  mutagenic call: inactive; negative
[17]
  mutagenic call: inactive; negative

## OC1c2cccc3ccc4c5ccccc5cc1c4c23 (stereo not given)
Test System: AMES SALMONELLA TYPHIMURIUM, Strain/Indicator: TA98, Metabolic Activation: HUMAN, LIVER, CYTOSOL, PAPS, Method: PREINCUBATION
  mutagenic call: active; positive
[7]
  mutagenic call: active; positive
Test System: AMES SALMONELLA TYPHIMURIUM, Strain/Indicator: TA98, Metabolic Activation: RAT, LIVER, CYTOSOL, KCL, Method: PREINCUBATION
  mutagenic call: inactive; negative
Test System: AMES SALMONELLA TYPHIMURIUM, Strain/Indicator: TA98, Metabolic Activation: RAT, LIVER, CYTOSOL, PAPS, KCL, Method: PREINCUBATION
  mutagenic call: active; positive
Test System: AMES SALMONELLA TYPHIMURIUM, Strain/Indicator: TA98, Metabolic Activation: RAT, LIVER, CYTOSOL, PAPS, Method: PREINCUBATION
  mutagenic call: active; positive
Test System: AMES SALMONELLA TYPHIMURIUM, Strain/Indicator: TA98, Metabolic Activation: RAT, LIVER, PAPS, KCL, Method: PREINCUBATION
  mutagenic call: inactive; negative
Test System: AMES SALMONELLA TYPHIMURIUM, Strain/Indicator: TA98, Metabolic Activation: RAT, LIVER, S-9, NADPH, Method: PREINCUBATION
  mutagenic call: active; positive
